Results taken from patent US10750742B2, “Pesticidally active pyrazole derivatives” (SYNGENTA PARTICIPATIONS AG, priority 2015, dated 2020).
Where two headings read alike, the source gives them in different places.

Legend:
Format in all cases: in vivo
[1] = tested on: Plutella xylostella; assay: Plutella xylostella (diamond back moth), artificial diet test; details: 120 h, read-out: control (mortality and growth inhibition)
Method: Plutella xylostella (Diamond Back Moth):
(§1) 24-well microtiter plates with artificial diet were treated with aqueous test solutions prepared from 10′000 ppm DMSO stock solutions by pipetting. After drying, the plates were infested with L2 larvae (10 to 15 per well). The samples were assessed for mortality and growth inhibition in comparison to untreated samples 5 days after infestation.

[2] = tested on: Spodoptera littoralis; assay: Spodoptera littoralis (Egyptian cotton leaf worm), cotton leaf disc spray test; details: foliar, 72 h, read-out: control (at least one of mortality, anti-feedant effect, growth inhibition); for percent control (mortality, anti-feedant effect or growth inhibition) at 200 ppm: application rate 200 ppm, L1 larvae, 3 days after infestation
Method: Spodoptera littoralis (Egyptian Cotton Leaf Worm)
Cotton leaf discs were placed on agar in 24-well microtiter plates and sprayed with aqueous test solutions prepared from 10′000 ppm DMSO stock solutions. After drying the leaf discs were infested with five L1 larvae. The samples were assessed for mortality, anti-feedant effect, and growth inhibition in comparison to untreated samples 3 days after infestation. Control of Spodoptera littoralis by a test sample is when at least one of mortality, anti-feedant effect, and growth inhibition is higher than the untreated sample.

[3] = tested on: Myzus persicae; assay: Myzus persicae (green peach aphid), sucrose solution / Parafilm test; details: 120 h
Source text: (§2) Myzus persicae (Green Peach Aphid):
Test compounds were applied by pipette into 24 well plates and mixed with Sucrose solution. Application rate: 12.5 ppm. The plates were closed with a stretched parafilm. A plastic stencil with 24 holes is placed onto the plate and infested pea seedlings were placed directly on the Parafilm. The infested plate is closed with a gel blotting paper and another plastic stencil and then turned upside down. 5 days after infestation the samples were checked on mortality.

[4] = tested on: Tetranychus urticae; assay: Tetranychus urticae (two-spotted spider mite), bean leaf disc test; details: foliar, 192 h, read-out: control (mortality on mixed population, mobile stages)
Method: Tetranychus urticae (Two-Spotted Spider Mite):
Bean leaf discs on agar in 24-well microtiter plates were sprayed with aqueous test solutions prepared from 10′000 ppm DMSO stock solutions. After drying the leaf discs were infested with a mite population of mixed ages. The samples were assessed for mortality on mixed population (mobile stages) 8 days after infestation.

[5] = tested on: Euschistus heros; assay: Euschistus heros (neotropical brown stink bug), soybean leaf test; details: 120 h, read-out: effect in at least one of the two categories (mortality or growth inhibition); for percent effect (mortality or growth inhibition) at 200 ppm: application rate 200 ppm, N2 nymphs, 5 days after infestation
Method: Euschistus heros (Neotropical Brown Stink Bug):
Soybean leaves on agar in 24-well microtiter plates were sprayed with aqueous test solutions prepared from 10′000 ppm DMSO stock solutions. After drying the leaves were infested with N2 nymphs. The samples were assessed for mortality and growth inhibition in comparison to untreated samples 5 days after infestation.

[6] = tested on: Thrips tabaci; assay: Thrips tabaci (onion thrips), sunflower leaf disc test; details: foliar, 144 h, read-out: control (mortality)
Method: Thrips tabaci (Onion Thrips):
Sunflower leaf discs were placed on agar in 24-well microtiter plates and sprayed with aqueous test solutions prepared from 10′000 ppm DMSO stock solutions. After drying the leaf discs were infested with a thrips population of mixed ages. The samples were assessed for mortality 6 days after infestation.

[7] = tested on: Diabrotica balteata; assay: Diabrotica balteata (corn root worm), maize sprout test; details: 96 h, read-out: control (mortality and growth inhibition)
Method: Diabrotica balteata, (Corn Root Worm)
as §1, with “Maize sprouts, placed on an agar layer in 24-well” for “24-well”, “plates” for “plates with artificial diet”, “spraying.” for “pipetting.”, “(6” for “(10”, “10” for “15”, “4” for “5”

[8] = tested on: Myzus persicae; assay: Myzus persicae (green peach aphid), sunflower leaf disc spray test; details: foliar, 144 h
Method: as §2
Sunflower leaf discs were placed on agar in a 24-well microtiter plate and sprayed with test solutions at an application rate of 200 ppm. After drying, the leaf discs were infested with an aphid population of mixed ages. After an incubation period of 6 DAT, samples were checked for mortality. The following compounds gave at least 80% mortality of Myzus persicae: compounds 1,2, 3, 4, 5, 6, 11, 12, 15, 17, 18, 19, 20, 23, 24, 25, 26, 27, 30, 32, 33, 34 35, 41, 43, 44, 47, 50, 55, 58, 59, 60, 61, 62, 63, 64, 65 and 66.

[9] = application rate 200 ppm, L2 larvae, 5 days after infestation
[10] = test rate of 12 ppm, sucrose solution, 5 days after infestation, read-out: mortality
[11] = application rate 200 ppm, 8 days after infestation
[12] = application rate 200 ppm, mixed ages, 6 days after infestation
[13] = application rate 200 ppm, L2 larvae, 4 days after infestation
[14] = application rate 200 ppm, mixed ages, 6 DAT, read-out: mortality

Cn1nc(OCC(F)(F)C(F)(F)C(F)(F)F)c(C(F)(F)F)c1-n1cc(-c2ccc(Cl)c(C(=O)NC3CC3)c2)cn1 [compound 26]
≥ 80%: mortality at 200 ppm [1] | mortality at 200 ppm [2] | mortality at 12 ppm [3] | mortality at 200 ppm [4] | percent control (mortality or growth inhibition) at 200 ppm [5] | mortality at 200 ppm [6] | mortality at 200 ppm [7] | mortality at 200 ppm [8]

Cn1nc(OCC(F)(F)C(F)(F)C(F)(F)C(F)F)c(C(F)(F)F)c1-n1cc(-c2ccc(Cl)c(C(=O)NC3(C#N)CC3)c2)cn1 [compound 20]
≥ 80%: mortality at 200 ppm [1] | mortality at 200 ppm [2] | mortality at 12 ppm [3] | mortality at 200 ppm [4] | percent control (mortality or growth inhibition) at 200 ppm [5] | mortality at 200 ppm [6] | mortality at 200 ppm [7] | mortality at 200 ppm [8]

Cn1nc(OCC(F)F)c(C(F)(F)F)c1-n1cc(-c2ccc(Cl)c(C(=O)NC3(C#N)CC3)c2)cn1 [compound 23]
≥ 80%: mortality at 200 ppm [1, 9] | percent control (mortality, anti-feedant effect or growth inhibition) at 200 ppm [2] | mortality at 12 ppm [3, 10] | mortality at 200 ppm [4, 11] | percent effect (mortality or growth inhibition) at 200 ppm [5] | mortality at 200 ppm [6, 12] | mortality at 200 ppm [7, 13] | mortality at 200 ppm [8, 14]

Cn1nc(OC(F)(F)C(F)C(F)(F)F)c(C(F)(F)F)c1-n1cc(-c2ccc(F)c(C(=O)NC3CC3)c2)cn1 (centres unmarked) [compound 60]
≥ 80%: mortality at 200 ppm [1, 9] | percent control (mortality, anti-feedant effect or growth inhibition) at 200 ppm [2] | mortality at 12 ppm [3, 10] | mortality at 200 ppm [4, 11] | percent effect (mortality or growth inhibition) at 200 ppm [5] | mortality at 200 ppm [6, 12] | mortality at 200 ppm [7, 13] | mortality at 200 ppm [8, 14]

Cn1nc(OCC(F)(F)C(F)(F)C(F)(F)F)c(C(F)(F)F)c1-n1cc(-c2ccc(Cl)c(C(=O)NC3(C#N)CC3)c2)cn1 [compound 19]
≥ 80%: mortality at 200 ppm [1] | mortality at 200 ppm [2] | mortality at 12 ppm [3] | mortality at 200 ppm [4] | percent control (mortality or growth inhibition) at 200 ppm [5] | mortality at 200 ppm [6] | mortality at 200 ppm [7] | mortality at 200 ppm [8]

Cn1nc(OC(F)(F)C(F)C(F)(F)F)c(C(F)(F)F)c1-n1cc(-c2ccc(F)c(C(=O)NC3(C#N)CC3)c2)cn1 (centres unmarked) [compound 59]
≥ 80%: mortality at 200 ppm [1, 9] | percent control (mortality, anti-feedant effect or growth inhibition) at 200 ppm [2] | mortality at 12 ppm [3, 10] | mortality at 200 ppm [4, 11] | percent effect (mortality or growth inhibition) at 200 ppm [5] | mortality at 200 ppm [6, 12] | mortality at 200 ppm [7, 13] | mortality at 200 ppm [8, 14]

Cn1nc(OCC(F)(F)OC(F)(F)C(F)(F)OC(F)(F)F)c(C(F)(F)F)c1-n1cc(-c2ccc(Cl)c(C(=O)NC3CC3)c2)cn1 [compound 25]
≥ 80%: mortality at 200 ppm [1, 9] | percent control (mortality, anti-feedant effect or growth inhibition) at 200 ppm [2] | mortality at 12 ppm [3, 10] | mortality at 200 ppm [4, 11] | percent effect (mortality or growth inhibition) at 200 ppm [5] | mortality at 200 ppm [6, 12] | mortality at 200 ppm [7, 13] | mortality at 200 ppm [8, 14]

Cn1nc(OC(F)(F)C(F)Br)c(C(F)(F)F)c1-n1cc(-c2ccc(Cl)c(C(=O)NC3(C#N)CC3)c2)cn1 (centres unmarked) [compound 47]
≥ 80%: mortality at 200 ppm [1, 9] | percent control (mortality, anti-feedant effect or growth inhibition) at 200 ppm [2] | mortality at 12 ppm [3, 10] | mortality at 200 ppm [4, 11] | percent effect (mortality or growth inhibition) at 200 ppm [5] | mortality at 200 ppm [6, 12] | mortality at 200 ppm [7, 13] | mortality at 200 ppm [8, 14]

Cn1nc(OCC(F)(F)C(F)(F)F)c(C(F)(F)F)c1-n1cc(-c2ccc(Cl)c(C(=O)NC3CC3)c2)cn1 [compound 32]
≥ 80%: mortality at 200 ppm [1, 9] | percent control (mortality, anti-feedant effect or growth inhibition) at 200 ppm [2] | mortality at 12 ppm [3, 10] | mortality at 200 ppm [4, 11] | percent effect (mortality or growth inhibition) at 200 ppm [5] | mortality at 200 ppm [6, 12] | mortality at 200 ppm [7, 13] | mortality at 200 ppm [8, 14]

Cn1nc(OCC(F)(F)OC(F)(F)C(F)(F)OC(F)(F)F)c(C(F)(F)F)c1-n1cc(-c2ccc(Cl)c(C(=O)NC3(C#N)CC3)c2)cn1 [compound 18]
≥ 80%: mortality at 200 ppm [1, 9] | percent control (mortality, anti-feedant effect or growth inhibition) at 200 ppm [2] | mortality at 12 ppm [3, 10] | mortality at 200 ppm [4, 11] | percent effect (mortality or growth inhibition) at 200 ppm [5] | mortality at 200 ppm [6, 12] | mortality at 200 ppm [7, 13] | mortality at 200 ppm [8, 14]

Cn1nc(OCC(F)(F)F)c(C(F)(F)F)c1-n1cc(-c2ccc(Cl)c(C(=O)NC3(C#N)CC3)c2)cn1 [compound 3]
≥ 80%: mortality at 200 ppm [1, 9] | percent control (mortality, anti-feedant effect or growth inhibition) at 200 ppm [2] | mortality at 12 ppm [3, 10] | mortality at 200 ppm [4, 11] | percent effect (mortality or growth inhibition) at 200 ppm [5] | mortality at 200 ppm [6, 12] | mortality at 200 ppm [7, 13] | mortality at 200 ppm [8, 14]

Cn1nc(OCC(F)(F)C(F)F)c(C(F)(F)F)c1-n1cc(-c2ccc(Cl)c(C(=O)NC3(C#N)CC3)c2)cn1 [compound 30]
≥ 80%: mortality at 200 ppm [1, 9] | percent control (mortality, anti-feedant effect or growth inhibition) at 200 ppm [2] | mortality at 12 ppm [3, 10] | mortality at 200 ppm [4, 11] | percent effect (mortality or growth inhibition) at 200 ppm [5] | mortality at 200 ppm [6, 12] | mortality at 200 ppm [7, 13] | mortality at 200 ppm [8, 14]

Cn1nc(OCC(F)(F)C(F)(F)C(F)(F)C(F)F)c(C(F)(F)F)c1-n1cc(-c2ccc(Cl)c(C(=O)NC3CC3)c2)cn1 [compound 27]
≥ 80%: mortality at 200 ppm [1] | mortality at 200 ppm [2] | mortality at 12 ppm [3] | mortality at 200 ppm [4] | percent control (mortality or growth inhibition) at 200 ppm [5] | mortality at 200 ppm [6] | mortality at 200 ppm [7] | mortality at 200 ppm [8]

CN(C(=O)c1cc(-c2cnn(-c3c(C(F)(F)F)c(OC(F)(F)C(F)C(F)(F)F)nn3C)c2)ccc1Cl)C1(C#N)CC1 (centres unmarked) [compound 55]
≥ 80%: mortality at 200 ppm [1, 9] | percent control (mortality, anti-feedant effect or growth inhibition) at 200 ppm [2] | mortality at 12 ppm [3, 10] | mortality at 200 ppm [4, 11] | percent effect (mortality or growth inhibition) at 200 ppm [5] | mortality at 200 ppm [6, 12] | mortality at 200 ppm [7, 13] | mortality at 200 ppm [8, 14]

Cn1nc(OC(F)(F)C(F)(F)Br)c(C(F)(F)F)c1-n1cc(-c2ccc(Cl)c(C(=O)NC3(C#N)CC3)c2)cn1 [compound 12]
≥ 80%: mortality at 200 ppm [1, 9] | percent control (mortality, anti-feedant effect or growth inhibition) at 200 ppm [2] | mortality at 12 ppm [3, 10] | mortality at 200 ppm [4, 11] | percent effect (mortality or growth inhibition) at 200 ppm [5] | mortality at 200 ppm [6, 12] | mortality at 200 ppm [7, 13] | mortality at 200 ppm [8, 14]

Cn1nc(OCC(F)(F)C(F)F)c(C(F)(F)F)c1-n1cc(-c2ccc(Cl)c(C(=O)NC3CC3)c2)cn1 [compound 33]
≥ 80%: mortality at 200 ppm [1, 9] | percent control (mortality, anti-feedant effect or growth inhibition) at 200 ppm [2] | mortality at 12 ppm [3, 10] | mortality at 200 ppm [4, 11] | percent effect (mortality or growth inhibition) at 200 ppm [5] | mortality at 200 ppm [6, 12] | mortality at 200 ppm [7, 13] | mortality at 200 ppm [8, 14]
